This note sets out measurements from ChEMBL document CHEMBL2073949, “Dehydroepiandrosterone sulfate (DHEAS): identification of a carrier protein in human liver and brain” (FEBS Lett, 1998).

Common to all, as to format: functional, cell-based, Oocyte
Data set [1] concerns the target T1, Solute carrier organic anion transporter family member 1A2 (OATP1A2) (Homo sapiens, UniProt P46721).
T1 sequence (P46721 whole entry): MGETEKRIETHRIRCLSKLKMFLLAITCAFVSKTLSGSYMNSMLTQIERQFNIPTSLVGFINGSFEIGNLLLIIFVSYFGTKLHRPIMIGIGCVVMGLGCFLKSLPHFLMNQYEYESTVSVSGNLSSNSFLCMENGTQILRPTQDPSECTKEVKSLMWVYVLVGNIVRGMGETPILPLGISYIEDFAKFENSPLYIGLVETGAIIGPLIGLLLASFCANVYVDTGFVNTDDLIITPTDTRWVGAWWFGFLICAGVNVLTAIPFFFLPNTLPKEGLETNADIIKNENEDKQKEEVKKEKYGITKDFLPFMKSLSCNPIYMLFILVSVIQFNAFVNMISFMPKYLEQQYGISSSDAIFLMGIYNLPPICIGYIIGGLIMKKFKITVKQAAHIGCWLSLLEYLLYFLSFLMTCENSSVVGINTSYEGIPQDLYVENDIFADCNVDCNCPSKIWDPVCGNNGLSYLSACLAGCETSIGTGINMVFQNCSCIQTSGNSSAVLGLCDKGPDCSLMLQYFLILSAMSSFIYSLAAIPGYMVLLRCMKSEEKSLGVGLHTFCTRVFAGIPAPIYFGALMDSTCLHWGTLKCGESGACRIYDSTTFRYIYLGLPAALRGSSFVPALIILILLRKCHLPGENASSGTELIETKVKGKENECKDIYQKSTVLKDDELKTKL
Put plainly: TP_TRANSPORTER: inhibition of DHEAS uptake (DHEAS: 5 uM, E1S: 100 uM) in Xenopus laevis oocytes. The note with it: Xenopus laevis oocytes expressing OATP1A2 (SLCO1A2), probe DHEAS (5 uM).

Data set [2] concerns the target T1, Solute carrier organic anion transporter family member 1A2 (OATP1A2). Briefly: TP_TRANSPORTER: inhibition of DHEAS uptake (DHEAS: 5 uM, Dexamethasone: 100 uM) in Xenopus laevis oocytes. The note with it: Xenopus laevis oocytes expressing OATP1A2 (SLCO1A2), probe DHEAS (5 uM).
Data set [3] has the same target. Put plainly: TP_TRANSPORTER: inhibition of DHEAS uptake (DHEAS: 5 uM, TCDC: 100 uM) in Xenopus laevis oocytes. The note with it: Xenopus laevis oocytes expressing OATP1A2 (SLCO1A2), probe DHEAS (5 uM).
The target is the same in data set [4]. Briefly: TP_TRANSPORTER: inhibition of DHEAS uptake (DHEAS: 5 uM, TUDC: 100 uM) in Xenopus laevis oocytes. The conditions noted are these: Xenopus laevis oocytes expressing OATP1A2 (SLCO1A2), probe DHEAS (5 uM).
The target is the same in data set [5]. Put plainly: TP_TRANSPORTER: inhibition of DHEAS uptake (DHEAS: 5 uM, Estradiol-3-sulfate: 100 uM) in Xenopus laevis oocytes. The note with it: Xenopus laevis oocytes expressing OATP1A2 (SLCO1A2), probe DHEAS (5 uM).
For data set [6] the target is unchanged. Put plainly: TP_TRANSPORTER: uptake in Xenopus laevis oocytes. The note with it: Xenopus laevis oocytes expressing OATP1A2 (SLCO1A2).

For `C[C@]12CC[C@@H]3c4ccc(OS(=O)(=O)O)cc4CC[C@H]3[C@@H]1CCC2=O` [ESTRONE SULFURIC ACID], 100 µM produced 82.3% inhibition in data set [1].

For `C[C@@H]1C[C@H]2[C@@H]3CCC4=CC(=O)C=C[C@]4(C)[C@@]3(F)[C@@H](O)C[C@]2(C)[C@@]1(O)C(=O)CO` [DEXAMETHASONE], the inhibition (commonly the relative decrease from the control value, in per cent) at 100 µM in data set [2] worked out at 97.3%.

`C[C@H](CCC(=O)NCCS(=O)(=O)O)[C@H]1CC[C@H]2[C@@H]3[C@H](O)C[C@@H]4C[C@H](O)CC[C@]4(C)[C@H]3CC[C@]12C` [TAUROCHENODEOXYCHOLATE]: in data set [3], the inhibition at 100 µM worked out at 75.2%.

In turn, `C[C@H](CCC(=O)NCCS(=O)(=O)O)[C@H]1CC[C@H]2[C@@H]3[C@@H](O)C[C@@H]4C[C@H](O)CC[C@]4(C)[C@H]3CC[C@]12C` [TAURURSODIOL] registered an inhibition at 100 µM in data set [4] of 85.7%.

`C[C@]12CC[C@@H]3c4ccc(OS(=O)(=O)O)cc4CC[C@H]3[C@@H]1CC[C@@H]2O`: the inhibition at 100 µM in data set [5] worked out at 92.9%.

Regarding `C[C@]12CC[C@H](OS(=O)(=O)O)CC1=CC[C@@H]1[C@@H]2CC[C@]2(C)C(=O)CC[C@@H]12` [PRASTERONE SULFURIC ACID], in data set [6], the Michaelis constant (Km) – broadly, the concentration of substrate that gives half-maximal velocity – is 6.6 µM.
